In patent publication US12559506B2, “Indazole based compounds and associated methods of use” (Arvinas Operations, Inc., priority 2021, dated 2026):
Read-outs that look alike come from different tables or passages of the source.

Molecular target: T1, LRRK2 (endogenous, HiBit tagged) (Homo sapiens, UniProt Q5S007)
T1 construct: endogenous in cells; host or cells: HEK293 cells with HiBit knock-in at the endogenous LRRK2 locus, stably expressing firefly luciferase
Assay: Endogenous LRRK2 degradation assay, endogenous gene C-terminally HiBit-tagged in HEK293 cells (Nano-Glo Dual Luciferase)
Assay type: cell-based
Conditions: endogenous HiBit-tagged LRRK2 in HEK293 cells
In short: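 LRRK2-HiBit quantified via Nano-Glo Dual Luciferase in HEK293 knock-in cells co-expressing firefly luciferase, after 24 h exposure to compound (1 μM final top, 1:3, 11 points). Values normalised to DMSO median per plate and curve-fitted; Alamar Blue viability run alongside.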

[1] = 24 hours treatment, read-out: **Endogenous WT Dmax (%)
[2] = 24 hours treatment, read-out: *Endogenous WT DC50
[3] = 24 hours, read-out: **Endogenous WT Dmax (%)
[4] = 24 hours, read-out: *Endogenous WT DC50
[5] = 24 hours treatment, read-out: Endogenous WT DC50
[6] = 24 hours treatment, read-out: Endogenous WT Dmax

T1 sequence (Q5S007 whole entry): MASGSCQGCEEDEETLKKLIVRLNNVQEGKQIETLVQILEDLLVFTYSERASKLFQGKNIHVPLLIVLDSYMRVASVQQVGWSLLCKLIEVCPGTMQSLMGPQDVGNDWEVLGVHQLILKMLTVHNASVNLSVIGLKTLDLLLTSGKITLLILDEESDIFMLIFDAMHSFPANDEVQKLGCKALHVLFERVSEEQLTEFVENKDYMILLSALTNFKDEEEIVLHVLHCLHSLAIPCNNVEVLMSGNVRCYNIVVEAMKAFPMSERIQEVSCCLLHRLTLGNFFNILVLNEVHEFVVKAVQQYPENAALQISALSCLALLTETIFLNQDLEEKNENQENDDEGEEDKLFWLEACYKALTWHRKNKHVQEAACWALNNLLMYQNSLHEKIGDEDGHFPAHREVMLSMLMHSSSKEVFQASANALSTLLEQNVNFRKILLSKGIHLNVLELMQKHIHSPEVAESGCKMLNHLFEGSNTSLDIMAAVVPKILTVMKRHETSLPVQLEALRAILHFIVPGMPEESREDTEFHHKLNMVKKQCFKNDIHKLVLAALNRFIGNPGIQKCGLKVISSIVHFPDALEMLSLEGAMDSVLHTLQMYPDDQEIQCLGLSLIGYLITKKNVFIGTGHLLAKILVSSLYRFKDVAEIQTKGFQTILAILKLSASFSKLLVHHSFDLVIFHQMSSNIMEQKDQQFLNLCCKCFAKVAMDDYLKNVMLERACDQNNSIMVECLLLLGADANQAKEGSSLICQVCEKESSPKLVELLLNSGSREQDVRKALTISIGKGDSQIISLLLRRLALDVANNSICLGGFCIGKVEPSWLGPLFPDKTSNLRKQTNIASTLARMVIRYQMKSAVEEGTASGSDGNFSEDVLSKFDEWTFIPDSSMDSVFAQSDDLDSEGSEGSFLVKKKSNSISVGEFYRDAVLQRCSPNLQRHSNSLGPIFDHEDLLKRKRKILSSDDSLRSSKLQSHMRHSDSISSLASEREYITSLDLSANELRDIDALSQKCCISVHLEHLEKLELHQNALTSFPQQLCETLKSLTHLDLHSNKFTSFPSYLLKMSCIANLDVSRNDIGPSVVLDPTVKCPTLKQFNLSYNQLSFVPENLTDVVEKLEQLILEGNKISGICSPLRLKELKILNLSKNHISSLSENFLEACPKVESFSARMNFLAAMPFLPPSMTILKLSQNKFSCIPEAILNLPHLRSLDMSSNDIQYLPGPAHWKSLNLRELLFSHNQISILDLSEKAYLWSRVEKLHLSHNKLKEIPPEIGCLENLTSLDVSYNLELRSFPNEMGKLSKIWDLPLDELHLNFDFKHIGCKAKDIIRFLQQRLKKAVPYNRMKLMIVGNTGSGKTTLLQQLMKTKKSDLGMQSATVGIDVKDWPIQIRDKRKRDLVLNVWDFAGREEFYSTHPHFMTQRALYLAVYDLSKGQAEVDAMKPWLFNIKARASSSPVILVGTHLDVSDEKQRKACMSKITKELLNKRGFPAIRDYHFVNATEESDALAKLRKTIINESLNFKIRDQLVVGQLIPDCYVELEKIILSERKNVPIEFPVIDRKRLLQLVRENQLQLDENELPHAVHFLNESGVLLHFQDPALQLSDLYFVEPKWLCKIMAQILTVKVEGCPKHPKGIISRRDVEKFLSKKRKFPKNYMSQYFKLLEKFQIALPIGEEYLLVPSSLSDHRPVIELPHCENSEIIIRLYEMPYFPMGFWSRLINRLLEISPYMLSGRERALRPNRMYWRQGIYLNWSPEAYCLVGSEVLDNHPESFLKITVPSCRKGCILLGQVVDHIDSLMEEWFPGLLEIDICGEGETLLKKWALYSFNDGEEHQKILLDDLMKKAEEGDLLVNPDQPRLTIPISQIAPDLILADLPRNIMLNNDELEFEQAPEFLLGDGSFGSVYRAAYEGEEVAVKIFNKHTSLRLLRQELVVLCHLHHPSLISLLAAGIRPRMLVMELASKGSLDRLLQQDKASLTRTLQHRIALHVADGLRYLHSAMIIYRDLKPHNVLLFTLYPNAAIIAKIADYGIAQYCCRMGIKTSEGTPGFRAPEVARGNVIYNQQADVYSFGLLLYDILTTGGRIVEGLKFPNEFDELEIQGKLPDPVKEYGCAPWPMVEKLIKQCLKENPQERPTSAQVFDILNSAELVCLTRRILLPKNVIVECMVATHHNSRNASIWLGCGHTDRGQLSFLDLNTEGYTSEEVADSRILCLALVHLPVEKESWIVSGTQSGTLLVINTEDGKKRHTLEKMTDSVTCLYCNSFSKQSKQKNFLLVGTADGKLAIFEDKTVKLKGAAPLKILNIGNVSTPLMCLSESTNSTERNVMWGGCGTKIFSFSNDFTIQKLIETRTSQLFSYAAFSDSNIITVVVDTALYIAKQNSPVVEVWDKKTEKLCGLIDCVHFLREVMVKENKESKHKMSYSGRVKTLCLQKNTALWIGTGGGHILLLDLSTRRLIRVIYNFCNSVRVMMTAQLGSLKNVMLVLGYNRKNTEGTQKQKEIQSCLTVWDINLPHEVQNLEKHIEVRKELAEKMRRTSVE

Row | Structure (SMILES) | Dmax [1] | DC50 [2] | also measured
1 | CC1(Oc2ccc3[nH]nc(-c4cc(N5CCC(CN6CC[C@H](OC7CCN(c8ccc9c(c8F)CN(C8CCC(=O)NC8=O)C9=O)CC7)CC6(C)C)CC5)ncn4)c3c2)CC1 (stereo partly drawn) [Compound 313, 3-[5-(4-{[(4S)-2,2-dimethyl-1-[(1-{6-[5-(1-methylcyclopropoxy)-1H-indazol-3-yl]pyrimidin-4-yl}piperidin-4-yl)methyl]piperidin-4-yl]oxy}piperidin-1-yl)-4-fluoro-1-oxo-2,3-dihydro-1H-isoindol-2-yl]piperidine-2,6-dione] | 50 to 70% | < 10 nM | 
2 | COc1c(N2CCC(CN3CCN(CC4CCN(c5cc(-c6n[nH]c7cc(F)c(OC8(C)CC8)cc67)ncn5)CC4)CC3(C)C)CC2)ccc2c1CN(C1CCC(=O)NC1=O)C2=O (centres unmarked) [Compound 279, 3-{5-[4-({4-[(1-{6-[6-fluoro-5-(1-methylcyclopropoxy)-1H-indazol-3-yl]pyrimidin-4-yl}piperidin-4-yl)methyl]-2,2-dimethylpiperazin-1-yl}methyl)piperidin-1-yl]-4-methoxy-1-oxo-2,3-dihydro-1H-isoindol-2-yl}piperidine-2,6-dione] | ≥ 70% | < 10 nM | 
3 | COc1c(N2CCN(C[C@H]3CO[C@H](CN4CCN(c5cc(-c6n[nH]c7cnc(OC8(C)CC8)cc67)ncn5)CC4)CO3)CC2)ccc2c1CN(C1CCC(=O)NC1=O)C2=O (some centres unmarked) [Compound 302, 3-[4-methoxy-5-(4-{[(2s,5r)-5-[(4-{6-[5-(1-methylcyclopropoxy)-1H-pyrazolo[3,4-c]pyridin-3-yl]pyrimidin-4-yl}piperazin-1-yl)methyl]-1,4-dioxan-2-yl]methyl}piperazin-1-yl)-1-oxo-2,3-dihydro-1H-isoindol-2-yl]piperidine-2,6-dione] | 50 to 70% | < 10 nM | 
4 | COc1c(N2CCN(C[C@H]3CC[C@H](CN4CCN(c5cc(-c6n[nH]c7ccc(OC8(C)CC8)cc67)ncn5)CC4)CC3)CC2)ccc2c1CN(C1CCC(=O)NC1=O)C2=O (some centres unmarked) [Compound 265, 3-[4-methoxy-1-oxo-5-(4-{[(1r,4r)-4-[(4-{6-[5-(1-methylcyclopropoxy)-1H-indazol-3-yl]pyrimidin-4-yl}piperazin-1-yl)methyl]cyclohexyl]methyl}piperazin-1-yl)-2,3-dihydro-1H-isoindol-2-yl]piperidine-2,6-dione] | ≥ 70% | < 10 nM | 
5 | COc1c(N2CCC(O[C@@H]3CCN(CC4CCN(c5cc(-c6n[nH]c7ccc(OC8(C)CC8)cc67)ncn5)CC4)C(C)(C)C3)CC2)ccc2c1CN(C1CCC(=O)NC1=O)C2=O (stereo partly drawn) [Compound 322, 3-[5-(4-{[(4R)-2,2-dimethyl-1-[(1-{6-[5-(1-methylcyclopropoxy)-1H-indazol-3-yl]pyrimidin-4-yl}piperidin-4-yl)methyl]piperidin-4-yl]oxy}piperidin-1-yl)-4-methoxy-1-oxo-2,3-dihydro-1H-isoindol-2-yl]piperidine-2,6-dione] | 50 to 70% | < 10 nM | 
6 | C[C@H]1CN(c2cc(-c3[nH]nc4ccc(OC5(C)CC5)cc34)ncn2)CCN1CCN1CCC(C(=O)N2CCN(c3ccc4c(c3)C(=O)N(C3CCC(=O)NC3=O)C4=O)CC2)CC1 (stereo partly drawn) [Compound 58, 2-(2,6-dioxopiperidin-3-yl)-5-[4-(1-{2-[(2S)-2-methyl-4-{6-[5-(1-methylcyclopropoxy)-2H-indazol-3-yl]pyrimidin-4-yl}piperazin-1-yl]ethyl}piperidine-4-carbonyl)piperazin-1-yl]-2,3-dihydro-1H-isoindole-1,3-dione] |  |  | Dmax [3]: 50 to 70%; DC50 [4]: < 10 nM
7 | CC1(Oc2cc3c(-c4cc(N5CCC(O[C@H]6CC[C@H](CN7CCN(c8ccc9c(c8F)CN(C8CCC(=O)NC8=O)C9=O)CC7)CC6)CC5)ncn4)n[nH]c3cc2F)CC1 (some centres unmarked) [Compound 259, 3-[4-fluoro-1-oxo-5-(4-{[(1r,4r)-4-[(1-{6-[6-fluoro-5-(1-methylcyclopropoxy)-1H-indazol-3-yl]pyrimidin-4-yl}piperidin-4-yl)oxy]cyclohexyl]methyl}piperazin-1-yl)-2,3-dihydro-1H-isoindol-2-yl]piperidine-2,6-dione] | 50 to 70% | < 10 nM | 
8 | COc1c(N2CCC(CN3CCN(CC4CCN(c5cc(-c6n[nH]c7cnc(OC8(C)CC8)cc67)ncn5)CC4)C[C@H]3C)CC2)ccc2c1CN(C1CCC(=O)NC1=O)C2=O (stereo partly drawn) [Compound 283, 3-[4-methoxy-5-(4-{[(2R)-2-methyl-4-[(1-{6-[5-(1-methylcyclopropoxy)-1H-pyrazolo[3,4-c]pyridin-3-yl]pyrimidin-4-yl}piperidin-4-yl)methyl]piperazin-1-yl]methyl}piperidin-1-yl)-1-oxo-2,3-dihydro-1H-isoindol-2-yl]piperidine-2,6-dione] | ≥ 70% | < 10 nM | 
9 | C[C@H]1CN(c2cc(-c3[nH]nc4ccc(OC5(C)CC5)cc34)ncn2)CCN1CCC1CCN(C(=O)C2CCN(c3ccc4c(c3)C(=O)N(C3CCC(=O)NC3=O)C4=O)CC2)CC1 (stereo partly drawn) [Compound 57, 2-(2,6-dioxopiperidin-3-yl)-5-[4-(4-{2-[(2S)-2-methyl-4-{6-[5-(1-methylcyclopropoxy)-2H-indazol-3-yl]pyrimidin-4-yl}piperazin-1-yl]ethyl}piperidine-1-carbonyl)piperidin-1-yl]-2,3-dihydro-1H-isoindole-1,3-dione] |  |  | Dmax [3]: ≥ 70%; DC50 [4]: < 10 nM
10 | CC1(Oc2ccc3n[nH]c(-c4cc(N5CCC(COC6CCN(C(=O)C7CCN(c8ccc9c(c8)C(=O)N(C8CCC(=O)NC8=O)C9=O)CC7)CC6)CC5)ncn4)c3c2)CC1 (centres unmarked) [Compound 62, 2-(2,6-dioxo-3-piperidyl)-5-[4-[4-[[1-[6-[5-(1-methylcyclopropoxy)-2H-indazol-3-yl]pyrimidin-4-yl]-4-piperidyl]methoxy]piperidine-1-carbonyl]-1-piperidyl]isoindoline-1,3-dione] |  |  | Dmax [3]: ≥ 70%; DC50 [4]: < 10 nM
11 | COc1c(N2CCC(O[C@H]3C[C@H](CN4CCN(c5cc(-c6[nH]nc7ccc(OC8(C)CC8)cc67)ncn5)CC4)C3)CC2)ccc2c1CN(C1CCC(=O)NC1=O)C2=O (some centres unmarked) [Compound 293, 3-(4-methoxy-1-oxo-5-{4-[(1r,3r)-3-[(4-{6-[5-(1-methylcyclopropoxy)-2H-indazol-3-yl]pyrimidin-4-yl}piperazin-1-yl)methyl]cyclobutoxy]piperidin-1-yl}-2,3-dihydro-1H-isoindol-2-yl)piperidine-2,6-dione] | 50 to 70% | < 10 nM | 
12 | COc1c(N2CCC(O[C@H]3CC[C@H](CN4CCN(c5cc(-c6n[nH]c7ccc(OC8(C)CC8)cc67)nc(C)n5)CC4)CC3)CC2)ccc2c1CN(C1CCC(=O)NC1=O)C2=O (some centres unmarked) [Compound 367, 3-[4-methoxy-1-oxo-5-(4-{[(1r,4r)-4-[(4-{2-methyl-6-[5-(1-methylcyclopropoxy)-1H-indazol-3-yl]pyrimidin-4-yl}piperazin-1-yl)methyl]cyclohexyl]oxy}piperidin-1-yl)-2,3-dihydro-1H-isoindol-2-yl]piperidine-2,6-dione] |  |  | DC50 [5]: < 10 nM; Dmax [6]: 50 to 70%
13 | CC1(Oc2ccc3[nH]nc(-c4cc(N5CCC(CN6C[C@@H]7C[C@H]6CN7CC6CCN(c7ccc8c(c7F)CN(C7CCC(=O)NC7=O)C8=O)CC6)CC5)ncn4)c3c2)CC1 (stereo partly drawn) [Compound 230, 3-[4-fluoro-5-(4-{[(1S,4S)-5-[(1-{6-[5-(1-methylcyclopropoxy)-1H-indazol-3-yl]pyrimidin-4-yl}piperidin-4-yl)methyl]-2,5-diazabicyclo[2.2.1]heptan-2-yl]methyl}piperidin-1-yl)-1-oxo-2,3-dihydro-1H-isoindol-2-yl]piperidine-2,6-dione] |  |  | DC50 [5]: < 10 nM; Dmax [6]: 50 to 70%
14 | C[C@@H]1CN(CC2CCN(c3ccc4c(c3F)CN(C3CCC(=O)NC3=O)C4=O)CC2)CCN1CC1CCN(c2cc(-c3n[nH]c4cnc(OC5(C)CC5)cc34)ncn2)CC1 (stereo partly drawn) [Compound 263, 3-[4-fluoro-5-(4-{[(3R)-3-methyl-4-[(1-{6-[5-(1-methylcyclopropoxy)-1H-pyrazolo[3,4-c]pyridin-3-yl]pyrimidin-4-yl}piperidin-4-yl)methyl]piperazin-1-yl]methyl}piperidin-1-yl)-1-oxo-2,3-dihydro-1H-isoindol-2-yl]piperidine-2,6-dione] | ≥ 70% | < 10 nM | 
15 | COc1c(N2CCN(C[C@H]3CC[C@H](OC4CCN(c5cc(-c6n[nH]c7cc(F)c(OC8(C)CC8)cc67)ncn5)CC4)CC3)CC2)ccc2c1CN(C1CCC(=O)NC1=O)C2=O (some centres unmarked) [Compound 281, 3-[4-methoxy-1-oxo-5-(4-{[(1r,4r)-4-[(1-{6-[6-fluoro-5-(1-methylcyclopropoxy)-1H-indazol-3-yl]pyrimidin-4-yl}piperidin-4-yl)oxy]cyclohexyl]methyl}piperazin-1-yl)-2,3-dihydro-1H-isoindol-2-yl]piperidine-2,6-dione] | 50 to 70% | < 10 nM | 
16 | CC1(Oc2ccc3[nH]nc(-c4cc(N5CCC(CN6CCN(CC7CCN(c8ccc9c(c8Cl)CN(C8CCC(=O)NC8=O)C9=O)CC7)CC6)CC5)ncn4)c3c2)CC1 (centres unmarked) [Compound 239, 3-[4-chloro-5-[4-[[4-[[1-[6-[5-(1-methylcyclopropoxy)-1H-indazol-3-yl]pyrimidin-4-yl]-4-piperidyl]methyl]piperazin-1-yl]methyl]-1-piperidyl]-1-oxo-isoindolin-2-yl]piperidine-2,6-dione] |  |  | DC50 [5]: < 10 nM; Dmax [6]: ≥ 70%
